The values below come from article PMC5486949 (SLAS discovery, 2017).

In one data set the target is ERRα. Description: ERR luciferase reporter gene assay, agonist mode. The data set is classed as cell-based, human. Conditions: for EC50: read-out: ERRα (Agonist) EC50; for AC50: read-out: AC50 ERR ↑. A general note: In a reporter assay the amount or activity of a reporter protein is the signal.
Data set [1] has as its target PGC-1α/ERRα. Description: PGC/ERR luciferase reporter gene assay, agonist mode. The class given is cell-based, human. Conditions: for AC50 / EC50: Homo sapiens; for AC50: read-out: AC50 PGC-ERR ↑; for EC50: read-out: PGC-1α/ERRα (Agonist) EC50.
Data set [2] deals with aryl hydrocarbon receptor (AhR). Conditions: cited from earlier work.
Data set [3] deals with PGC-1α/ERRα. Description: PGC/ERR luciferase reporter gene assay, antagonist mode. The data set is classed as cell-based, human. To be noted: for IC50: read-out: PGC-1α/ERRα (Antagonist) IC50.
The test system of another data set is ERR cell line (HEK293T). Description: Cell viability assay multiplexed with ERR antagonist mode assay. The data set is classed as cell-based, human. To be noted: read-out: ERRα (Viability) IC50.
Data set [4] relates to PGC/ERR cell line (HEK293T). Description: Cell viability assay multiplexed with PGC/ERR antagonist mode assay. Conditions: read-out: PGC-1α/ERRα (Viability) IC50. The data set is classed as cell-based, human.
Data set [5] deals with ERR and PGC/ERR cell lines. Description: Cell viability. Conditions: agonist mode, ERR and PGC/ERR lines (Fig. 3A,B).
Where [6] appears, read: agonist mode, 0 = inactive or inconclusive.

Where two headings read alike, the source gives them in different places.

With 6-Bromoindirubin-3-oxime, the “AC50 ERR ↑” value on ERRα (setting [6]) was 5.78 log10(M)*–1. Moreover, the EC50 at ERRα (LOPAC qHTS, dash = inconclusive or no activity) amounted to 1.68 µM. At PGC-1α/ERRα [1] (setting [6]), the “AC50 PGC-ERR ↑” value is given as 5.93 log10(M)*–1. Moreover, the “AC50 AhR ↑” value in data set [2] is reported as 5.48 log10(M)*–1.
As for `CC[n+]1c(/C=C/C=C2/N(C)c3ccccc3C2(C)C)sc2ccccc21` [AC-93253 iodide], the IC50 was found to be 0.42 µM on PGC-1α/ERRα [3], 8.41 µM in the data set with ERR cell line (HEK293T) and 3.76 µM in data set [4].
Turning to `O=c1cc(-c2ccc(O)cc2)oc2cc(O)cc(O)c12` [Apigenin], the AC50 with PGC-1α/ERRα [1] is 2.34 µM. Moreover, the “AC50 AhR ↑” value in data set [2] is recorded as 5.28 log10(M)*–1.
With `CCCCCCCCCCCCCC(=O)O[C@@H]1[C@@H](C)[C@@]2(O)[C@@H](C=C(CO)C[C@]3(O)C(=O)C(C)=C[C@@H]23)[C@@H]2C(C)(C)[C@]12OC(C)=O` [Phorbol 12-myristate 13-acetate], in the data set with ERRα (Homo sapiens), the AC50 was 0.00832 µM and the EC50 is 0.01 µM. Besides, in the data set on PGC-1α/ERRα [1], the AC50 is 0.00661 µM and the EC50 was 0.01 µM. In addition, in data set [5], the “cytotoxicity at concentrations of outfitted points of agonist curves” value is “cytotoxicity was seen at the concentration accompanying the outfitted points”.
For `C=C(C)[C@H]1Cc2c(ccc3c2O[C@@H]2COc4cc(OC)c(OC)cc4[C@@H]2C3=O)O1` [Rotenone], the AC50 in the data set with PGC-1α/ERRα [3] (Homo sapiens, read-out: AC50 PGC/ERR ↓) is 0.0741 µM. Besides, the IC50 in the data set on PGC-1α/ERRα [3] (Homo sapiens) was determined as 0.04 µM; in the data set on ERR cell line (HEK293T) (Homo sapiens, HEK-293T), 1.33 µM; in data set [4] (Homo sapiens, HEK-293T), 6.68 µM.
As for `O=c1c2ccccc2nc2n1CCc1c-2[nH]c2ccccc12` [Rutaecarpine], in the data set with ERRα (Homo sapiens), the AC50 is 2.34 µM and the EC50 worked out at 2.37 µM. Further, in the data set with PGC-1α/ERRα [1], the AC50 was 13.2 µM and the EC50 was 13.3 µM. For the same molecule, in data set [2], the “AC50 AhR ↑” value is reported as 5.53 log10(M)*–1.
